Reference: ChEMBL document CHEMBL5316338, “Discovery of Novel PTP1B Inhibitors with Once-Weekly Therapeutic Potential for Type 2 Diabetes: Design, Synthesis, and In Vitro and In Vivo Investigations of BimBH3 Peptide Analogues” (J Med Chem, 2023)
The source made the active and inactive calls. The calls are words filed in the database; no cut-off is given here. Square brackets hold non-standard residues; d marks the D form. Peptide text beside a SMILES is read from it. * marks the point of attachment. ξ: configuration not given here. C22 diacid = O=C(O)CCCCCCCCCCCCCCCCCCCCC(=O)*; ξR = N=C(N)NCCCC(N)C(=O)O

Tests used:
Pepsin = test: Stability of compound assessed as Pepsin (unknown origin) mediated compound degradation by measuring half-life by HPLC analysis; type: ADME; settings: human
Mus musculus [1] = test: Antidiabetic activity against C57BL/Ks db/db mouse assessed as redcution in fasting blood glucose level at 1 umol/kg administered subcutaneously and measured immediately by glucometer analysis (reference value: 19.0 +/- 2.7 […]); type: functional; settings: dose 1 µmol/kg; route sc
Mus musculus [2] = test: Antidiabetic activity against over-night fasted C57BL/ks db/db mouse assessed as suppression of increased blood glucose concentration at 1 uM/kg, sc pretreated with compound for 4 weeks followed by oral glucose stimulation and measured upto 120 mins by oral glucose tolerance test; type: functional, organism-based; settings: time 40440.0 min
Mus musculus [3] = test: Antidiabetic activity against C57BL/Ks db/db mouse assessed as redcution in fasting blood glucose level at 1 umol/kg, sc administered once a week and measured on day 8 by glucometer analysis (reference value: 27.7 +/- 3.7 […]); type: functional; settings: dose 1 µmol/kg, time 8 day
Mus musculus [4] = test: Antidiabetic activity against C57BL/Ks db/db mouse assessed as redcution in fasting blood glucose level at 1 umol/kg, sc administered once a week and measured on day 26 by glucometer analysis (reference value: 31.4 +/- 2.2 […]); type: functional; settings: dose 1 µmol/kg, time 26 day
[5] = biological target: T1, Tyrosine-protein phosphatase non-receptor type 1 (Homo sapiens) (UniProt P18031); test: Inhibition of N-terminal His tagged recombinant human PTP1B expressed in Escherichia coli using pNPP as substrate assessed as substrate hydrolysis at 40 umol/L relative to control; settings: dose 40.0 µmol/L
T1 sequence (whole entry): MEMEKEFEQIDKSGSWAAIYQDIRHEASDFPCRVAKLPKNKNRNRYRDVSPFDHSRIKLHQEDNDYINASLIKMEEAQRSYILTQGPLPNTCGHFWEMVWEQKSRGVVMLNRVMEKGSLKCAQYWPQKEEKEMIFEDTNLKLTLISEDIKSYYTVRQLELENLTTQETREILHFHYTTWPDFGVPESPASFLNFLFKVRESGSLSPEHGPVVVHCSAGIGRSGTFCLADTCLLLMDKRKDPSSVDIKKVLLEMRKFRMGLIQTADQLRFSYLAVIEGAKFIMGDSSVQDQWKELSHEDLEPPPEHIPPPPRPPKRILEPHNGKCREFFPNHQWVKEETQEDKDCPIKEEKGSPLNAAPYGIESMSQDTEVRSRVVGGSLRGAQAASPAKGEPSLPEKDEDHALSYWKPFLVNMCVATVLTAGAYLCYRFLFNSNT

Mus musculus [6] = test: Antidiabetic activity against C57BL/Ks db/db mouse assessed as redcution in fasting blood glucose level at 1 umol/kg, sc administered once a week and measured on day 28 by glucometer analysis (reference value: 32.4 +/- 1.1 […]); type: functional; settings: dose 1 µmol/kg, time 28 day
Mus musculus [7] = test: Antidiabetic activity against sc dosed C57BL/Ks db/db mouse assessed as reduction in serum insulin level at 1 umol/kg by ELISA analysis; type: functional, organism-based; settings: dose 1.0 µmol/kg
[8] = biological target: T2, Tyrosine-protein phosphatase non-receptor type 2 (Homo sapiens, UniProt P17706); test: Inhibition of recombinant human TC-PTP (1 to 314 residues) expressed in baculovirus infected insect cells using pNPP as substrate assessed as substrate hydrolysis; design: species or system Insect cell
T2 sequence (P17706 whole entry): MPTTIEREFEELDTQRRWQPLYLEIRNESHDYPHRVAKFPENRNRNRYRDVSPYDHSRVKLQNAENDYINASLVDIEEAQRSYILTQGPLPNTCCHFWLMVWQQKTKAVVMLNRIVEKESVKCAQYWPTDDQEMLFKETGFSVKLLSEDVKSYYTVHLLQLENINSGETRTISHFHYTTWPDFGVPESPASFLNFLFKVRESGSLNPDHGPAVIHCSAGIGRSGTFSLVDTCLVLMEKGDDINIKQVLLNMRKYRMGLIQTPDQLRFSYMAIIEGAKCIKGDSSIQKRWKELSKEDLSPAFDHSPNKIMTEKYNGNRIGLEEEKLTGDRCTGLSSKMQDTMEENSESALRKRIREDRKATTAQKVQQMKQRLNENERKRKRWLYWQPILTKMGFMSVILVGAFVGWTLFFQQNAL

Carboxypeptidase A1 = biological target: T3, Carboxypeptidase A1 (Homo sapiens, UniProt P15085); test: Stability of compound assessed as carboxypeptidase A (unknown origin) mediated compound degradation by measuring fold change of half-life by RP-HPLC analysis relative to BimBH312-mer peptide; type: ADME
T3 sequence (P15085 whole entry): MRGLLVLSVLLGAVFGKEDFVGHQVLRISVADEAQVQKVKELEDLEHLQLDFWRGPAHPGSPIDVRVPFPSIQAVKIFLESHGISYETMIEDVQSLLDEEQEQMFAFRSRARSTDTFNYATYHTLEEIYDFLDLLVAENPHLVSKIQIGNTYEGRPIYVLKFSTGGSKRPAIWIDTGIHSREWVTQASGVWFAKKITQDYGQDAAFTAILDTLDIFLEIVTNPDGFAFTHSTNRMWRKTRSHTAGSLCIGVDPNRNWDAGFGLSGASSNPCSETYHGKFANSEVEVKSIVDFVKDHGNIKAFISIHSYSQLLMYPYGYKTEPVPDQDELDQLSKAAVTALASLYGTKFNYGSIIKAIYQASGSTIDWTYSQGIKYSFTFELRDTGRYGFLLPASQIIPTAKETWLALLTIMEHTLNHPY

[9] = Stability of compound assessed as Pepsin (unknown origin) mediated compound degradation by measuring fold change of half-life by HPLC analysis relative to BimBH312-mer peptide; type: ADME; settings: human
[10] = biological target: T4, Tyrosine-protein phosphatase non-receptor type 1 (Homo sapiens, UniProt P18031); test: Inhibition of N-terminal His tagged recombinant human PTP1B expressed in Escherichia coli using pNPP as substrate assessed as substrate hydrolysis
T4 sequence (P18031 whole entry): T1 sequence (whole entry)

[11] = Stability of compound assessed as Proteinase K (unknown origin) mediated compound degradation by measuring fold change of half-life by HPLC analysis relative to BimBH312-mer peptide; type: ADME
carboxypeptidase A = biological target: T5, carboxypeptidase A (Homo sapiens, UniProt P15085); test: Stability of compound assessed as carboxypeptidase A (unknown origin) mediated compound degradation by measuring half-life by RP-HPLC analysis; type: ADME
T5 sequence (P15085 whole entry): T3 sequence (P15085 whole entry)

chymotrypsin [12] = biological target: chymotrypsin (Homo sapiens, UniProt P17538+P40313+Q6GPI1+Q99895); test: Stability of compound assessed as chymotrypsin (unknown origin) mediated compound degradation by measuring half-life by RP-HPLC analysis; type: ADME, protein assay
Proteinase K = test: Stability of compound assessed as Proteinase K (unknown origin) mediated compound degradation by measuring half-life by HPLC analysis; type: ADME
Mus musculus [13] = test: Antidiabetic activity against C57BL/Ks db/db mouse assessed as redcution in fasting blood glucose level at 1 umol/kg, sc administered once a week and measured on day 24 by glucometer analysis (reference value: 30.2 +/- 3.2 […]); type: functional; settings: dose 1 µmol/kg, time 24 day
Homo sapiens = organism: Homo sapiens; test: Selectivity index, ratio of IC50 for inhibition of recombinant human TC-PTP (1 to 314 residues) expressed in baculovirus infected insect cells to IC50 for inhibition of N-terminal His-tagged recombinant human PTP1B expressed in Escherichia coli
[14] = biological target: T6, Tyrosine-protein phosphatase non-receptor type 2 (Homo sapiens) (UniProt P17706); test: Inhibition of recombinant human TC-PTP (1 to 314 residues) expressed in baculovirus infected insect cells using pNPP as substrate assessed as substrate hydrolysis at 50 umol/L relative to control; settings: Insect cell, dose 50.0 µmol/L
T6 sequence (whole entry): T2 sequence (P17706 whole entry)

Mus musculus [15] = test: Antidiabetic activity against sc dosed C57BL/Ks db/db mouse assessed as reduction in C-peptide level at 1 umol/kg by ELISA analysis; type: functional, organism-based; settings: dose 1.0 µmol/kg
Mus musculus [16] = test: Antidiabetic activity against over-night fasted C57BL/ks db/db mouse assessed as suppression of increased blood glucose concentration at 1 uM/kg, sc pretreated with compound for 4 weeks followed by insulin stimulation and measured for 90 mins by insulin tolerance test; type: functional, organism-based; settings: time 40410.0 min
Mus musculus [17] = test: Antidiabetic activity against sc dosed C57BL/Ks db/db mouse assessed as reduction in glucagon level at 1 umol/kg by ELISA analysis; type: functional, organism-based; settings: dose 1.0 µmol/kg
Chymotrypsin [18] = biological target: Chymotrypsin (Homo sapiens, UniProt Q99895+P17538+P40313+Q6GPI1); test: Stability of compound assessed as chymotrypsin (unknown origin) mediated compound degradation by measuring fold change of half-life by RP-HPLC analysis relative to BimBH312-mer peptide; type: ADME, protein assay
Mus musculus [19] = test: Antidiabetic activity against C57BL/Ks db/db mouse assessed as redcution in fasting blood glucose level at 1 umol/kg, sc administered once a week and measured on day 22 by glucometer analysis (reference value: 27.4 +/- 1.8 […]); type: functional; settings: dose 1 µmol/kg, time 22 day
Mus musculus [20] = test: Antidiabetic activity against C57BL/Ks db/db mouse assessed as redcution in fasting blood glucose level at 1 umol/kg, sc administered once a week and measured on day 15 by glucometer analysis (reference value: 27.3 +/- 2.4 […]); type: functional; settings: dose 1 µmol/kg, time 15 day

CC[C@H](C)[C@H](NC(=O)CCCCCCCCCCCCCCCCCCCCC(=O)O)C(=O)N[C@@H](C)C(=O)N[C@@H](CCC(N)=O)C(=O)N[C@@H](CCC(=O)O)C(=O)N[C@@H](CC(C)C)C(=O)N[C@@H](CCCNC(=N)N)C(=O)NC(CCCNC(=N)N)C(=O)N[C@H](C(=O)NCC(=O)N[C@@H](CC(=O)O)C(=O)N[C@@H](CCC(=O)O)C(=O)N[C@@H](Cc1ccccc1)C(=O)O)[C@@H](C)CC (stereo not given in full) ({C22 diacid}-IAQELR[ξR]IGDEF-OH)
half-life (Pepsin): 1.41 h | Fasting blood glucose level (Mus musculus [1]): 19.7 mmol/L | Activity (Mus musculus [2]): Active | Fasting blood glucose level (Mus musculus [3]): 11.5 mmol/L | Fasting blood glucose level (Mus musculus [4]): 19.7 mmol/L | inhibition [5]: > 50% | Fasting blood glucose level (Mus musculus [6]): 17 mmol/L | Activity (Mus musculus [7]): Active | IC50 [8]: > 50000 nM | fold change (FC) (Carboxypeptidase A1): 40 | fold change (FC) [9]: 64.1 | IC50 [10]: 200 nM | fold change (FC) [11]: 10.2 | half-life (carboxypeptidase A): 1.28 h | half-life (chymotrypsin [12]): 6.81 h | half-life (Proteinase K): 0.51 h | Fasting blood glucose level (Mus musculus [13]): 16 mmol/L | Ratio IC50 (Homo sapiens): > 250 | inhibition [14]: < 50% | Activity (Mus musculus [15]): Active | Activity (Mus musculus [16]): Active | Activity (Mus musculus [17]): Active | fold change (FC) (Chymotrypsin [18]): 158.4 | Fasting blood glucose level (Mus musculus [19]): 11.4 mmol/L | Fasting blood glucose (Mus musculus [20]): 11 mmol/L
